Values joined by “and” are separate entries in the source; they are usually repeats but may differ in a detail not shown here. Identical values can stand only once. Like-named read-outs stand apart in the source and are kept apart here.
How the values were obtained:
[1] = system: HepG2.2.15 and Vero cells
Hepatitis B virus (HBV) = test: microbe, parasite or virus in culture; type: cell-based; settings: read-out: EC50 HBV
[2] = system: poliovirus type 1 Sabin strain (PV-1); test: microbe, parasite or virus in culture; type: cell-based; settings: for EC50 / inhibition at 0.0001 µM / inhibition at 0.001 µM / inhibition at 0.01 µM / inhibition at 0.1 µM / inhibition at 1 µM: Enterovirus C, Vero; for EC50: 24 h, read-out: EC50 PV-1; for inhibition at 0.0001 µM / inhibition at 0.001 µM / inhibition at 0.01 µM / inhibition at 0.1 µM / inhibition at 1 µM: N 3, read-out: Inhibition percent relative to control, Polio virus (Median)
[3] = system: Herpes simplex type 1 F strain (HSV-1); test: microbe, parasite or virus in culture; type: cell-based, Herpes Simplex Virus type 1; settings: for EC50 / inhibition at 10 µM / inhibition at 0.0001 µM / inhibition at 0.001 µM / inhibition at 0.01 µM / inhibition at 0.1 µM / inhibition at 1 µM: Human alphaherpesvirus 1, Vero; for EC50: 48 h, read-out: EC50 HSV-1; for inhibition at 10 µM: read-out: Inhibitory effect against HSV-1; for inhibition at 0.0001 µM / inhibition at 0.001 µM / inhibition at 0.01 µM / inhibition at 0.1 µM / inhibition at 1 µM: N 3, read-out: Inhibition percent relative to control, Herpes simplex virus (Median)
in vitro [4] = settings: human (HepG2.2.15); African green monkey (Vero)
in vitro [5] = settings: human
[6] = Hepatitis B virus, HepG2.2.15, 72 h

With `CC(C)CCC[C@@H](C)[C@H]1CC[C@H]2[C@@H]3CC[C@H]4C[C@@H](O)CC[C@]4(C)[C@H]3CC[C@]12C` [5-α-cholestan-3-β-ol] the CC50 [1] was > 100 µM and the CC50 (HepG2.2.15 cells) was > 100 µM.
With `C[C@@H]1O[C@@H](OC[C@H]2O[C@H](Oc3c(-c4cc(O)c(O)c(O)c4)oc4cc(O)cc(O)c4c3=O)[C@H](O)[C@@H](O)[C@H]2O)[C@H](O)[C@H](O)[C@H]1O` [MyrGG, myricetin-3-α-O-ramnosil (1→6)-α-galactoside] the EC50 (Hepatitis B virus (HBV)) was 12 µM, the CC50 [1] was > 100 µM and the CC50 (HepG2.2.15 cells) was > 100 µM.
With `C[C@@H]1O[C@@H](Oc2c(-c3cc(O)c(O)c(O)c3)oc3cc(O)cc(O)c3c2=O)[C@H](O)[C@H](O)[C@H]1O` [MyrG, myricetin rhamnoside] the EC50 (Hepatitis B virus (HBV)) was 0.015 µM, the CC50 [1] was > 100 µM and the CC50 (HepG2.2.15 cells) was > 100 µM.
For 24,25-dehydropollinastanol, the CC50 [1] was > 100 µM and the CC50 (HepG2.2.15 cells) was > 100 µM.
For `COc1ccc(-c2oc3c(OC)c(OC)c(OC)c(O)c3c(=O)c2OC)cc1O` [PMF, 5,3'-dihydroxy-3,6,7,8,4'-pentamethoxyflavone], the EC50 (Hepatitis B virus (HBV); [6]) was 0.001 µM, the “Plaque forming units, Polio virus” value ([2]; 0.0001 µM) was 91 PFU and 92 PFU and 89 PFU and the “Plaque forming units, Polio virus” value ([2]; 0.001 µM) was 81 PFU and 80 PFU and 78 PFU. For the same compound, the “Plaque forming units, Polio virus” value ([2]; 0.01 µM) was 45 PFU and 41 PFU and 48 PFU, the “Plaque forming units, Polio virus” value ([2]; 0.1 µM) was 11 PFU and 16 PFU and 10 PFU and the EC50 [2] was 1 ± 0.05 µM. It also gave an inhibition at 0.0001 µM ([2]; 0.0001 µM) of 0.1%, an inhibition at 0.001 µM ([2]; 0.001 µM) of 11.5% and an inhibition at 0.01 µM ([2]; 0.01 µM) of 50.4%. The inhibition at 0.1 µM ([2]; 0.1 µM) was 86.3%, the inhibition at 1 µM [2] was 97.8% and the “Plaque forming units, Herpes simplex virus” value ([3]; 0.0001 µM) was 98 PFU and 91 PFU and 90 PFU. The “Plaque forming units, Herpes simplex virus” value ([3]; 0.001 µM) was 82 PFU and 68 PFU and 76 PFU, the “Plaque forming units, Herpes simplex virus” value ([3]; 0.01 µM) was 68 PFU and 73 PFU and 61 PFU and the “Plaque forming units, Herpes simplex virus” value ([3]; 0.1 µM) was 48 PFU and 58 PFU and 55 PFU. For the same compound, the “Plaque forming units, Herpes simplex virus” value ([3]; 1 µM) was 34 PFU and 30 PFU and 37 PFU, the EC50 [3] was 6.8 ± 0.2 µM and the inhibition at 10 µM [3] was 90%. For the same compound, the inhibition at 0.0001 µM ([3]; 0.0001 µM) was 3.14%, the inhibition at 0.001 µM ([3]; 0.001 µM) was 21.5% and the inhibition at 0.01 µM ([3]; 0.01 µM) was 29.9%. The inhibition at 0.1 µM ([3]; 0.1 µM) was 44.1%, the inhibition at 1 µM ([3]; 1 µM) was 64.9% and the CC50 (in vitro [4]) was > 100 µM. The CC50 (in vitro [5]) was 10 ± 0.1 µM.
For `CC(C)CCC[C@@H](C)[C@H]1CC[C@H]2C3=CC[C@H]4C[C@@H](O)CC[C@]4(C)[C@H]3CC[C@]12C` [5-α-cholestan-7-en3-β-ol], the CC50 [1] was > 100 µM and the CC50 (HepG2.2.15 cells) was > 100 µM.
In the case of `C=C(C)C1CCC2(C)CCC3(C)C(=CCC4C5(C)CCC(O)C(C)(C)C5CCC43C)C12` (stereo not drawn) [Upa-12,20(29)-dien-3-ol, lupa-12,20(29)-dien-3-ol], the CC50 [1] is reported as > 100 µM and the CC50 (HepG2.2.15 cells) is reported as > 100 µM.
With marcetol the CC50 [1] was > 100 µM and the CC50 (HepG2.2.15 cells) was > 100 µM.
In the case of `COc1ccc(-c2oc3cc(OC)c(OC)c(O)c3c(=O)c2OC)cc1OC` [PMF-OH, 5-hydroxy-3,6,7,3',4'-pentamethoxyflavone], the EC50 (Hepatitis B virus (HBV); [6]) is reported as 0.098 µM, the “Plaque forming units, Polio virus” value ([2]; 0.0001 µM) is reported as 92 PFU and 95 PFU and 90 PFU and the “Plaque forming units, Polio virus” value ([2]; 0.001 µM) is reported as 76 PFU and 70 PFU and 73 PFU. For the same compound, the “Plaque forming units, Polio virus” value ([2]; 0.01 µM) was 42 PFU and 40 PFU and 48 PFU, the “Plaque forming units, Polio virus” value ([2]; 0.1 µM) was 23 PFU and 20 PFU and 26 PFU and the EC50 [2] was 1.1 ± 0.03 µM. It also gave an inhibition at 0.0001 µM ([2]; 0.0001 µM) of 0.1%, an inhibition at 0.001 µM ([2]; 0.001 µM) of 18.9% and an inhibition at 0.01 µM ([2]; 0.01 µM) of 51.9%. The inhibition at 0.1 µM ([2]; 0.1 µM) was 74.4%, the inhibition at 1 µM [2] was 96.3% and the “Plaque forming units, Herpes simplex virus” value ([3]; 0.0001 µM) was 96 PFU and 98 PFU and 90 PFU. For the same compound, the “Plaque forming units, Herpes simplex virus” value ([3]; 0.001 µM) was 80 PFU and 82 PFU and 86 PFU, the “Plaque forming units, Herpes simplex virus” value ([3]; 0.01 µM) was 76 PFU and 73 PFU and 70 PFU and the “Plaque forming units, Herpes simplex virus” value ([3]; 0.1 µM) was 67 PFU and 55 PFU and 50 PFU. For the same compound, the “Plaque forming units, Herpes simplex virus” value ([3]; 1 µM) was 10 PFU and 5 PFU, the EC50 [3] was 5.9 ± 0.1 µM and the inhibition at 10 µM [3] was 60%. It also gave an inhibition at 0.0001 µM ([3]; 0.0001 µM) of 1.4%, an inhibition at 0.001 µM ([3]; 0.001 µM) of 13.9% and an inhibition at 0.01 µM ([3]; 0.01 µM) of 24%. For the same compound, the inhibition at 0.1 µM ([3]; 0.1 µM) was 40.3%, the inhibition at 1 µM ([3]; 1 µM) was 91.3% and the CC50 (in vitro [4]) was > 100 µM. For the same compound, the CC50 (in vitro [5]) was 10 ± 0.58 µM.

Reference: publication PMC6868923 (EXCLI Journal, 2019)
